Assay results from PubChem BioAssay AID328 (DTP/NCI, 2004).
Where “and” joins values, the source holds several entries; their conditions need not be identical. Equal values may be shown once. Inconclusive results and toxic doses are left out.

Tested on: BDF1 mice, P388 leukemia ip, median survival T/C
Assay: NCI In Vivo Anticancer Drug Screen. Data for tumor model P388 Leukemia (intraperitoneal) in B6D2F1 (BDF1) mice
Settings: endpoint: median survival time, higher = longer survival
Procedure, shortened: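 Read-out is survival of treated animals expressed relative to the vehicle group, as a T/C ratio.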

[1] = dose: 100.0 mg/kg/injection, schedule: Q01DX009 (ip), vehicle: saline
[2] = dose: 100.0 mg/kg/injection, schedule: Q04DX003 (ip), vehicle: saline with Tween-80
[3] = dose: 25.0 mg/kg/injection, schedule: Q01DX009 (ip), vehicle: saline with Tween-80
[4] = dose: 50.0 mg/kg/injection, schedule: Q01DX009 (ip), vehicle: saline with Tween-80
[5] = dose: 100.0 mg/kg/injection, schedule: Q01DX009 (ip), vehicle: saline with Tween-80
[6] = dose: 3.12 mg/kg/injection, schedule: Q01DX009 (ip), vehicle: water
[7] = dose: 6.25 mg/kg/injection, schedule: Q01DX009 (ip), vehicle: water
[8] = dose: 12.5 mg/kg/injection, schedule: Q01DX009 (ip), vehicle: water
[9] = dose: 25.0 mg/kg/injection, schedule: Q01DX009 (ip), vehicle: water
[10] = dose: 50.0 mg/kg/injection, schedule: Q04DX003 (ip), vehicle: water
[11] = dose: 100.0 mg/kg/injection, schedule: Q04DX003 (ip), vehicle: water
[12] = dose: 12.5 mg/kg/injection, schedule: Q04DX003 (ip), vehicle: water
[13] = dose: 25.0 mg/kg/injection, schedule: Q04DX003 (ip), vehicle: water
[14] = dose: 50.0 mg/kg/injection, schedule: Q01DX009 (ip), vehicle: water
[15] = dose: 50.0 mg/kg/injection, schedule: Q04DX003 (ip), vehicle: saline with Tween-80

For `O=C(O)C(CSC(c1ccccc1)(c1ccccc1)c1ccccc1)N=Cc1cccs1` (stereo not given), the T/C (dose: 2.1 mg/kg/injection, schedule: Q01DX009 (ip), vehicle: saline) was 118 % of control, the T/C (dose: 3.1 mg/kg/injection, schedule: Q01DX009 (ip), vehicle: saline) was 109 % of control and the T/C (dose: 7.2 mg/kg/injection, schedule: Q01DX009 (ip), vehicle: saline) was 175 % of control. The T/C (dose: 11.0 mg/kg/injection, schedule: Q01DX009 (ip), vehicle: saline) was 189 % of control, the T/C (dose: 16.0 mg/kg/injection, schedule: Q01DX009 (ip), vehicle: saline) was 163 % of control and the T/C (dose: 25.0 mg/kg/injection, schedule: Q01DX009 (ip), vehicle: saline) was 185 % of control. For the same compound, the T/C (dose: 50.0 mg/kg/injection, schedule: Q01DX009 (ip), vehicle: saline) was 200 % of control, the T/C (dose: 66.0 mg/kg/injection, schedule: Q01DX009 (ip), vehicle: saline) was 272 % of control and 177 % of control and the T/C [1] was 250 % of control and 90 % of control and 218 % of control. For the same compound, the T/C (dose: 150.0 mg/kg/injection, schedule: Q01DX009 (ip), vehicle: saline) was 100 % of control.

In the case of `O=NN(CCF)C(=O)NC1CCC(NC(=O)N(CCF)N=O)CC1` (stereo not given), the T/C (dose: 16.5 mg/kg/injection, schedule: Q04DX003 (ip), vehicle: saline with Tween-80) is reported as 186 % of control, the T/C (dose: 33.0 mg/kg/injection, schedule: Q04DX003 (ip), vehicle: saline with Tween-80) is reported as 272 % of control and the T/C (dose: 66.0 mg/kg/injection, schedule: Q04DX003 (ip), vehicle: saline with Tween-80) is reported as 272 % of control. The T/C [2] was 272 % of control, the T/C (dose: 132.0 mg/kg/injection, schedule: Q04DX003 (ip), vehicle: alcohol) was 272 % of control and the T/C (dose: 200.0 mg/kg/injection, schedule: Q04DX003 (ip), vehicle: saline with Tween-80) was 200 % of control.

`CCOC(=O)C1CCCNC1` (stereo not given) was tested, and the T/C [1] was 104 % of control, the T/C (dose: 100.0 mg/kg/injection, schedule: Q04DX003 (ip), vehicle: saline) was 95 % of control and the T/C (dose: 200.0 mg/kg/injection, schedule: Q01DX009 (ip), vehicle: saline) was 100 % of control. For the same compound, the T/C (dose: 200.0 mg/kg/injection, schedule: Q04DX003 (ip), vehicle: saline) was 91 % of control, the T/C (dose: 400.0 mg/kg/injection, schedule: Q01DX009 (ip), vehicle: saline) was 112 % of control and the T/C (dose: 400.0 mg/kg/injection, schedule: Q04DX003 (ip), vehicle: saline) was 87 % of control.

For `CCC(=O)O[C@H]1CC[C@H]2[C@@H]3CC[C@H]4CC(=O)[C@H](C)C[C@]4(C)[C@H]3CC[C@]12C`, the T/C (dose: 100.0 mg/kg/injection, schedule: Q01DX009 (ip), vehicle: Klucel (hydroxypropylcellulose) (HPC)) was 87 % of control, the T/C (dose: 100.0 mg/kg/injection, schedule: Q04DX003 (ip), vehicle: Klucel (hydroxypropylcellulose) (HPC)) was 104 % of control and the T/C (dose: 200.0 mg/kg/injection, schedule: Q01DX009 (ip), vehicle: Klucel (hydroxypropylcellulose) (HPC)) was 95 % of control. For the same compound, the T/C (dose: 200.0 mg/kg/injection, schedule: Q04DX003 (ip), vehicle: Klucel (hydroxypropylcellulose) (HPC)) was 100 % of control, the T/C (dose: 400.0 mg/kg/injection, schedule: Q01DX009 (ip), vehicle: Klucel (hydroxypropylcellulose) (HPC)) was 87 % of control and the T/C (dose: 400.0 mg/kg/injection, schedule: Q04DX003 (ip), vehicle: Klucel (hydroxypropylcellulose) (HPC)) was 104 % of control.

With `O=Cc1ccc(C=O)c(Cl)c1` the T/C [3] was 104 % of control, the T/C [4] was 90 % of control and the T/C (dose: 88.0 mg/kg/injection, schedule: Q04DX003 (ip), vehicle: saline sonified) was 105 % of control. For the same compound, the T/C [5] was 118 % of control, the T/C (dose: 132.0 mg/kg/injection, schedule: Q04DX003 (ip), vehicle: saline sonified) was 100 % of control and the T/C (dose: 200.0 mg/kg/injection, schedule: Q04DX003 (ip), vehicle: saline sonified) was 100 % of control. For the same compound, the T/C (dose: 300.0 mg/kg/injection, schedule: Q04DX003 (ip), vehicle: saline sonified) was 120 % of control.

With `O=Cc1ccc(/C=C2\NC(=O)NC2=O)cc1` the T/C [6] was 89 % of control, the T/C (dose: 6.25 mg/kg/injection, schedule: Q01DX009 (ip), vehicle: Klucel (hydroxypropylcellulose) (HPC)) was 100 % of control and the T/C [7] was 106 % of control. For the same compound, the T/C (dose: 12.5 mg/kg/injection, schedule: Q01DX009 (ip), vehicle: Klucel (hydroxypropylcellulose) (HPC)) was 95 % of control, the T/C [8] was 120 % of control and the T/C (dose: 25.0 mg/kg/injection, schedule: Q01DX009 (ip), vehicle: Klucel (hydroxypropylcellulose) (HPC)) was 92 % of control. The T/C [9] was 121 % of control, the T/C (dose: 50.0 mg/kg/injection, schedule: Q01DX009 (ip), vehicle: Klucel (hydroxypropylcellulose) (HPC)) was 92 % of control and the T/C [10] was 103 % of control. The T/C [11] was 87 % of control and the T/C (dose: 200.0 mg/kg/injection, schedule: Q04DX003 (ip), vehicle: water) was 119 % of control.

`O=C1C=CC(=O)c2c(O)c(CBr)c(CBr)c(O)c21` was tested, and the T/C [6] was 96 % of control, the T/C [7] was 118 % of control and the T/C (dose: 6.25 mg/kg/injection, schedule: Q04DX003 (ip), vehicle: water) was 105 % of control. The T/C [8] was 108 % of control, the T/C [12] was 105 % of control and the T/C [9] was 118 % of control. The T/C [13] was 100 % of control, the T/C [14] was 112 % of control and the T/C [10] was 107 % of control. For the same compound, the T/C (dose: 100.0 mg/kg/injection, schedule: Q01DX009 (ip), vehicle: water) was 105 % of control.

For `O=C(O)C1CC/C=C\CCC1` (stereo not given), the T/C (dose: 100.0 mg/kg/injection, schedule: Q04DX003 (sc), vehicle: olive oil, sesame oil, peanut oil) was 100 % of control, the T/C (dose: 200.0 mg/kg/injection, schedule: Q04DX003 (sc), vehicle: olive oil, sesame oil, peanut oil) was 100 % of control and the T/C (dose: 400.0 mg/kg/injection, schedule: Q04DX003 (sc), vehicle: olive oil, sesame oil, peanut oil) was 91 % of control.

`C1CCCCCC(NC2=NCCO2)CCCCC1` was tested, and the T/C (dose: 3.13 mg/kg/injection, schedule: Q04DX003 (ip), vehicle: saline with Tween-80) was 95 % of control, the T/C (dose: 6.25 mg/kg/injection, schedule: Q04DX003 (ip), vehicle: saline with Tween-80) was 95 % of control and the T/C (dose: 12.5 mg/kg/injection, schedule: Q04DX003 (ip), vehicle: saline with Tween-80) was 108 % of control. For the same compound, the T/C (dose: 25.0 mg/kg/injection, schedule: Q04DX003 (ip), vehicle: saline with Tween-80) was 90 % of control and the T/C [15] was 90 % of control.

For `COc1cc(N2CCOCC2)ccc1N`, the T/C (dose: 1.56 mg/kg/injection, schedule: Q01DX009 (ip), vehicle: saline) was 154 % of control, the T/C (dose: 6.25 mg/kg/injection, schedule: Q01DX009 (ip), vehicle: saline) was 122 % of control and the T/C (dose: 25.0 mg/kg/injection, schedule: Q04DX003 (ip), vehicle: saline) was 118 % of control. The T/C (dose: 44.0 mg/kg/injection, schedule: Q04DX003 (ip), vehicle: saline) was 108 % of control and the T/C (dose: 66.0 mg/kg/injection, schedule: Q04DX003 (ip), vehicle: saline) was 116 % of control.

For `CC(=O)CC(C)=O.CC(=O)CC(C)=O.Cc1nccn1C.O=N[O-].[Co]`, the T/C (dose: 100.0 mg/kg/injection, schedule: Q04DX002 (ip), vehicle: saline with Tween-80) was 105 % of control.

`CC(C)=CCOc1ccc(C(=O)/C=C/c2ccc(O)cc2)c(O)c1` was tested, and the T/C (dose: 1.25 mg/kg/injection, schedule: Q01DX009 (ip), vehicle: Klucel (hydroxypropylcellulose) (HPC)) was 93 % of control, the T/C (dose: 2.5 mg/kg/injection, schedule: Q01DX009 (ip), vehicle: Klucel (hydroxypropylcellulose) (HPC)) was 115 % of control and the T/C (dose: 5.0 mg/kg/injection, schedule: Q01DX009 (ip), vehicle: Klucel (hydroxypropylcellulose) (HPC)) was 109 % of control. The T/C (dose: 10.0 mg/kg/injection, schedule: Q01DX009 (ip), vehicle: Klucel (hydroxypropylcellulose) (HPC)) was 107 % of control, the T/C (dose: 20.0 mg/kg/injection, schedule: Q01DX009 (ip), vehicle: Klucel (hydroxypropylcellulose) (HPC)) was 97 % of control and the T/C (dose: 40.0 mg/kg/injection, schedule: Q01DX009 (ip), vehicle: Klucel (hydroxypropylcellulose) (HPC)) was 98 % of control.

In the case of `Cc1ccc(S(=O)(=O)Cl)c(Cl)c1`, the T/C [3] is reported as 100 % of control, the T/C [4] is reported as 116 % of control and the T/C [15] is reported as 104 % of control. The T/C [5] was 112 % of control and the T/C [2] was 113 % of control.

In the case of `CC(=O)NC(Cc1ccc(N(CCCl)CCCl)cc1)C(=O)O` (stereo not given), the T/C (dose: 1.56 mg/kg/injection, schedule: Q01DX009 (ip), vehicle: water) is reported as 110 % of control, the T/C [6] is reported as 123 % of control and the T/C [7] is reported as 118 % of control. For the same compound, the T/C [12] was 172 % of control, the T/C [9] was 203 % of control and the T/C [13] was 164 % of control and 200 % of control. For the same compound, the T/C [14] was 248 % of control, the T/C [10] was 245 % of control and 200 % of control and the T/C [11] was 194 % of control.
